Experimental data published in PubChem BioAssay (NCI).
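How tested: cells in 96-well plates exposed to compound for 48 hours at five concentrations. Definition used: TGI = concentration required for complete inhibition of growth.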

Legend:
Assay in all cases: growth of human tumour cells (NCI), 48 h
786-0 renal = tested on: 786-0 renal
A549 NSCLC = tested on: A549 NSCLC
ACHN renal = tested on: ACHN renal
CAKI-1 renal = tested on: CAKI-1 renal
CCRF-CEM leukemia = tested on: CCRF-CEM leukemia
COLO 205 colon = tested on: COLO 205 colon
DU-145 prostate = tested on: DU-145 prostate
EKVX NSCLC = tested on: EKVX NSCLC
HCC-2998 colon = tested on: HCC-2998 colon
HCT-116 colon = tested on: HCT-116 colon
HCT-15 colon = tested on: HCT-15 colon
HL-60(TB) leukemia = tested on: HL-60(TB) leukemia
HOP-62 NSCLC = tested on: HOP-62 NSCLC
HS 578T breast = tested on: HS 578T breast
HT29 colon = tested on: HT29 colon
IGROV1 ovarian = tested on: IGROV1 ovarian
K-562 leukemia = tested on: K-562 leukemia
KM12 colon = tested on: KM12 colon
LOX IMVI melanoma = tested on: LOX IMVI melanoma
M14 melanoma = tested on: M14 melanoma
MALME-3M melanoma = tested on: MALME-3M melanoma
MCF7 breast = tested on: MCF7 breast
MDA-MB-231 breast = tested on: MDA-MB-231 breast
MDA-MB-435 = tested on: MDA-MB-435
MDA-N = tested on: MDA-N
MOLT-4 leukemia = tested on: MOLT-4 leukemia
NCI-H226 lung = tested on: NCI-H226 lung
NCI-H23 lung = tested on: NCI-H23 lung
NCI-H460 lung = tested on: NCI-H460 lung
NCI-H522 lung = tested on: NCI-H522 lung
NCI/ADR-RES ovarian = tested on: NCI/ADR-RES ovarian
OVCAR-3 ovarian = tested on: OVCAR-3 ovarian
OVCAR-5 ovarian = tested on: OVCAR-5 ovarian
OVCAR-8 ovarian = tested on: OVCAR-8 ovarian
PC-3 prostate = tested on: PC-3 prostate
RPMI-8226 leukemia = tested on: RPMI-8226 leukemia
RXF 393 renal = tested on: RXF 393 renal
SF-268 CNS = tested on: SF-268 CNS
SF-295 CNS = tested on: SF-295 CNS
SF-539 CNS = tested on: SF-539 CNS
SK-MEL-28 melanoma = tested on: SK-MEL-28 melanoma
SK-MEL-5 melanoma = tested on: SK-MEL-5 melanoma
SN12C renal = tested on: SN12C renal
SNB-19 CNS = tested on: SNB-19 CNS
SNB-75 CNS = tested on: SNB-75 CNS
SR leukemia = tested on: SR leukemia
SW-620 colon = tested on: SW-620 colon
TK-10 renal = tested on: TK-10 renal
U251 CNS = tested on: U251 CNS
UACC-257 melanoma = tested on: UACC-257 melanoma
UO-31 renal = tested on: UO-31 renal

Measured: TGI

CCOP(=O)(OCC)C(c1ccc(F)cc1)N(C(=O)NC(F)(F)F)c1ccc(F)cc1 (stereo unspecified)
> 100 µM: all assays above
